Test results published in patent US20070117743A1, “New antitumoral compounds” (priority 2003, published 2007).
Where a SMILES comes first, the peptide text is derived from it. Bridges are numbered along the chain shown (N, C = ends). [ ]: non-standard residue; d: D form. The star is where a group is joined. d(aIle) = CC[C@H](C)[C@@H](N)C(=O)O; d(aThr) = C[C@@H](O)[C@@H](N)C(=O)O; Hexanoyl(5-Me) = CC(C)CCCC(=O)*; Orn = NCCC[C@H](N)C(=O)O; Dhb = C/C=C(\N)C(=O)O

Tests used:
Assay type in all cases: cell-based, human
[1] = test system: PANC-1; experiment: SRB colorimetric assay of cell growth and viability, PANC-1; settings: PANC-1, 48 hours exposure; for CC50: read-out: LC50 PANC-1
[2] = test system: DU-145; experiment: SRB colorimetric assay of cell growth and viability, DU-145; settings: DU-145; 48 hours exposure
[3] = test system: A-549; experiment: SRB colorimetric assay of cell growth and viability, A-549; settings: A-549, 48 hours exposure; for GI50: read-out: GI50 A-549; for CC50: read-out: LC50 A-549
[4] = test system: SK-MEL-28; experiment: SRB colorimetric assay of cell growth and viability, SK-MEL-28; settings: MEL-28, 48 hours exposure; for CC50: read-out: LC50 MEL-28
[5] = test system: SK-BR-3; experiment: SRB colorimetric assay of cell growth and viability, SK-BR-3; settings: SK-BR-3; 48 hours exposure
[6] = test system: HeLa; experiment: SRB colorimetric assay of cell growth and viability, HeLa; settings: HELA, 48 hours exposure; for CC50: read-out: LC50 HELA
[7] = test system: IGROV-1; experiment: SRB colorimetric assay of cell growth and viability, IGROV-1; settings: IGROV; 48 hours exposure
[8] = test system: K-562; experiment: SRB colorimetric assay of cell growth and viability, K-562; settings: K-562, 48 hours exposure; for CC50: read-out: LC50 K-562
[9] = test system: IGROV-ET; experiment: SRB colorimetric assay of cell growth and viability, IGROV-ET; settings: IGROV-ET, 48 hours exposure; for CC50: read-out: LC50 IGROV-ET
[10] = test system: LNCaP; experiment: SRB colorimetric assay of cell growth and viability, LNCaP; settings: LN-caP, 48 hours exposure; for CC50: read-out: LC50 LN-caP
[11] = test system: HT-29; experiment: SRB colorimetric assay of cell growth and viability, HT-29; settings: HT-29, 48 hours exposure; for GI50: read-out: GI50 HT-29; for CC50: read-out: LC50 HT-29
[12] = test system: LoVo-Dox; experiment: SRB colorimetric assay of cell growth and viability, LoVo-Dox; settings: LOVO-DOX, 48 hours exposure; for CC50: read-out: LC50 LOVO-DOX
Outline: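 SRB staining (0.4% wt/vol in 1% acetic acid, 10 min, room temperature) of cells fixed with 50% TCA follows a 48-hour exposure to compound. Plating density is 5×10^3 cells/well, and the OD is taken at 490 nm.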

[13] = test system: HeLa-APL; experiment: SRB colorimetric assay of cell growth and viability, HeLa-APL; settings: HELA-APL, 48 hours exposure; for CC50: read-out: LC50 HELA-APL

Row | SMILES | GI50 [1] [µM] | TGI PANC-1 [1] [Molar] | CC50 [1] [µM] | GI50 [2] [µM] | LC50 (concentration causing 50% net cell kill) [2] [µM] | TGI DU-145 [2] [Molar] | TGI A-549 [3] [Molar] | GI50 [3] [µM] | CC50 [3] [µM] | GI50 [4] [µM] | TGI MEL-28 [4] [Molar] | CC50 [4] [µM] | GI50 [5] [µM] | LC50 [5] [µM] | TGI SK-BR-3 [5] [Molar] | GI50 [6] [µM] | TGI HELA [6] [Molar] | CC50 [6] [µM] | GI50 [7] [µM] | LC50 (concentration causing 50% net cell killing) [7] [µM] | further results
1 | C/C=C1\NC(=O)[C@H](Cc2ccccc2)NC(=O)[C@@H](C(C)C)NC(=O)[C@@H]([C@@H](C)CC)NC(=O)[C@H](NC(=O)[C@H](NC(=O)[C@H](CCCN)NC(=O)[C@H]2CCCN2C(=O)[C@H](NC(=O)[C@@H](NC(=O)CNC(=O)[C@H](NC(=O)CCCC(C)C)C(C)C)C(C)C)C(C)C)[C@@H](C)CC)[C@@H](C)OC(=O)[C@H](C(C)C)NC1=O [Compound 111, [Gly^12]-KF] ({Hexanoyl(5-Me)}-[dV]GV[dV][dP][Orn][d(aIle)][d(aThr)][d(aIle)][dV]F[Dhb]V; ester 8-C) | 0.453 | 1.71E−06 | 5.81 | 0.725 | 6.97 | 2.53E−06 | 2.59E−06 | 1.09 | 6.16 | 0.25 | 6.31E−07 | 2.9 | 0.41 | 5.94 | 1.54E−06 | 1.26 | 2.94E−06 | 6.86 | 0.167 | 1.33 | TGI IGROV [7]: 3.72E−07 Molar; GI50 [8]: 0.144 µM; TGI K-562 [8]: 3.66E−07 Molar; CC50 [8]: 2.06 µM; GI50 [9]: 0.264 µM; TGI IGROV-ET [9]: 1.00E−06 Molar; CC50 [9]: 6.97 µM; GI50 [10]: 0.4 µM; TGI LN-caP [10]: 6.97E−06 Molar; CC50 [10]: 6.97 µM; TGI HT-29 [11]: 2.59E−06 Molar; GI50 [11]: 0.511 µM; CC50 [11]: 6.97 µM; GI50 [12]: 0.324 µM; TGI LOVO-DOX [12]: 1.24E−06 Molar; CC50 [12]: 4.39 µM; GI50 [13]: 0.355 µM; TGI HELA-APL [13]: 1.21E−06 Molar; CC50 [13]: 3.51 µM
2 | C/C=C1\NC(=O)[C@H](Cc2ccccc2)NC(=O)[C@@H](C(C)C)NC(=O)[C@@H]([C@@H](C)CC)NC(=O)[C@H](NC(=O)[C@H](NC(=O)[C@H](CCCN)NC(=O)[C@H]2CCCN2C(=O)[C@H](NC(=O)[C@@H](NC(=O)[C@H](Cc2ccccc2)NC(=O)[C@H](NC(=O)CCCC(C)C)C(C)C)C(C)C)C(C)C)[C@@H](C)CC)[C@@H](C)OC(=O)[C@H](C(C)C)NC1=O [Compound 114, [Phe^12]-KF] ({Hexanoyl(5-Me)}-[dV]FV[dV][dP][Orn][d(aIle)][d(aThr)][d(aIle)][dV]F[Dhb]V; ester 8-C) | 0.233 | 1.16E−06 | 6.56 | 0.18 | 1.73 | 3.75E−07 | 3.50E−07 | 0.157 | 1.52 | 0.17 | 3.36E−07 | 0.748 | 0.207 | 6.56 | 4.62E−07 | 0.259 | 9.25E−07 | 5.69 | 0.114 | 6.56 | TGI IGROV [7]: 3.10E−07 Molar; GI50 [8]: 0.0787 µM; TGI K-562 [8]: 3.71E−07 Molar; CC50 [8]: 4.03 µM; GI50 [9]: 0.301 µM; TGI IGROV-ET [9]: 8.40E−07 Molar; CC50 [9]: 6.38 µM; GI50 [10]: 0.053 µM; TGI LN-caP [10]: 3.00E−07 Molar; CC50 [10]: 4.7 µM; TGI HT-29 [11]: 3.22E−07 Molar; GI50 [11]: 0.157 µM; CC50 [11]: 0.696 µM; GI50 [12]: 0.18 µM; TGI LOVO-DOX [12]: 3.94E−07 Molar; CC50 [12]: 4.27 µM; GI50 [13]: 0.143 µM; TGI HELA-APL [13]: 3.49E−07 Molar; CC50 [13]: 2.03 µM
3 | C/C=C1\NC(=O)[C@H](Cc2ccccc2)NC(=O)[C@@H](C(C)C)NC(=O)[C@@H]([C@@H](C)CC)NC(=O)[C@H](NC(=O)[C@H](NC(=O)[C@H](CCCN)NC(=O)[C@H]2CCCN2C(=O)[C@H](NC(=O)[C@@H](NC(=O)[C@@H]2CCCN2C(=O)[C@H](NC(=O)CCCC(C)C)C(C)C)C(C)C)C(C)C)[C@@H](C)CC)[C@@H](C)OC(=O)[C@H](C(C)C)NC1=O [Compound 117, [Pro^12]-KF] ({Hexanoyl(5-Me)}-[dV]PV[dV][dP][Orn][d(aIle)][d(aThr)][d(aIle)][dV]F[Dhb]V; ester 8-C) | 3.88 | 6.78E−06 | 6.78 | 2.41 | 6.78 | 5.43E−06 | 6.78E−06 | 3.29 | 6.78 | 2 | 4.26E−06 | 6.78 | 1.55 | 5.62 | 2.96E−06 | 1.53 | 2.89E−06 | 5.46 | 1.97 | 6.78 | TGI IGROV [7]: 3.70E−06 Molar; GI50 [8]: 0.841 µM; TGI K-562 [8]: 2.10E−06 Molar; CC50 [8]: 5.22 µM; GI50 [9]: 1.82 µM; TGI IGROV-ET [9]: 3.11E−06 Molar; CC50 [9]: 5.34 µM; GI50 [10]: 1.51 µM; TGI LN-caP [10]: 2.87E−06 Molar; CC50 [10]: 5.45 µM; TGI HT-29 [11]: 3.38E−06 Molar; GI50 [11]: 0.0176 µM; CC50 [11]: ≥ 6.49 µM; GI50 [12]: 1.83 µM; TGI LOVO-DOX [12]: 3.59E−06 Molar; CC50 [12]: 6.78 µM; GI50 [13]: 1.84 µM; TGI HELA-APL [13]: 3.98E−06 Molar; CC50 [13]: 6.78 µM
